The text below walks through data of patent publication US8163724B2, “Glucocorticosteroids, processes for their preparation, pharmaceutical compositions containing them and their use in therapy” (AstraZeneca AB, priority 2007, dated 2012).

The structures appear in SMILES notation.

The test deals with T1, recombinant human GR (Homo sapiens, UniProt P04150).
T1 construct: purchased Panvera/Invitrogen P2812 (kit P2893)
T1 sequence (P04150 1-777): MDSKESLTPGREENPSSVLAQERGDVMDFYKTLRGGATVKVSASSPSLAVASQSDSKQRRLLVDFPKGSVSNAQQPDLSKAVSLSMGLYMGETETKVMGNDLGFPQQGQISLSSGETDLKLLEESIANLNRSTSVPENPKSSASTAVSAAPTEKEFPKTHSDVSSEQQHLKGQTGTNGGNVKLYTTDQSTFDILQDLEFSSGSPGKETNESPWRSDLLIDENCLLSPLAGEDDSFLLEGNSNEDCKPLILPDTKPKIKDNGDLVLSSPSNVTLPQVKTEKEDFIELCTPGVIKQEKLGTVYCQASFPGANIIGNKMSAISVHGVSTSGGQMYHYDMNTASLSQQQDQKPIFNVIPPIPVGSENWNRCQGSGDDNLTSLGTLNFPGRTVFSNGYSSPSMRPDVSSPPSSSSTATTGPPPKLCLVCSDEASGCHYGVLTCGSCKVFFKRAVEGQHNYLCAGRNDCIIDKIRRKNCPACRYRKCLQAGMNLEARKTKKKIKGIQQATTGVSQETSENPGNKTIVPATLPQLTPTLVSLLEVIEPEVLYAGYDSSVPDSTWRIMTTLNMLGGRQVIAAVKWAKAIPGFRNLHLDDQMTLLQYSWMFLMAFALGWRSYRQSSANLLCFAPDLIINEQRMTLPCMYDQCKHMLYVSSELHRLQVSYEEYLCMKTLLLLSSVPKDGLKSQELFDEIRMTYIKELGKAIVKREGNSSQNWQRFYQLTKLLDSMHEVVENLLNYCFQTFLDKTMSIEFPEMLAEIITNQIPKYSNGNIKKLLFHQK
The test is described as follows: Human Glucocorticoid Receptor (GR) Assay (fluorescence polarization, Panvera/Invitrogen kit). It counts as binding. The settings on record: fluorescence polarization; GS Red tracer; 2 hours at room temperature; 100% control 10 μM Dexamethasone; read-out: Inhibition of GR binding, IC50. Summed up: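 Fluorescence polarization competition with recombinant GR and GS Red fluorescent ligand plus stabilizing peptide and DTT in potassium phosphate/sodium molybdate/EDTA buffer with DMSO. Incubated 2 hours at room temperature in the dark; 0% control DMSO, 100% control 10 μM dexamethasone.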
(In general: In fluorescence polarisation assays a small probe gives low polarisation when free and higher when bound to something large.)
On to `C=Cc1cccc(-n2ncc3c2C=C2CC[C@@H]4[C@H]([C@@H](O)C[C@@]5(C)[C@H]4CC[C@]5(OC(=O)c4ccco4)C(=O)SCF)[C@@]2(C)C3)c1` [Example 72, (1R,10aR,11S,12aS)-7-(3-Ethenylphenyl)-1-{[(fluoromethyl)thio]carbonyl}-11-hydroxy-10a,12a-dimethyl-1,2,3,3a,3b,4,5,7,10a,10b,11,12,12a-tetradecahydrocyclopenta[5,6]naphtho[1,2-f]indazol-1-yl furan-2-carboxylate], for which the IC50 (usually the concentration at which inhibition is half-maximal) was determined as 17 nM.
As for `COCc1cc(-n2ncc3c2C=C2CC[C@@H]4[C@H]([C@@H](O)C[C@@]5(C)[C@H]4CC[C@]5(OC(=O)c4ccco4)C(=O)SCC#N)[C@@]2(C)C3)ccc1F` [Example 73, (1R,3aS,3bS,10aR,10bS,11S,12aS)-1-{[(Cyanomethyl)thio]carbonyl}-7-[4-fluoro-3-(methoxymethyl)phenyl]-11-hydroxy-10a,12a-dimethyl-1,2,3,3a,3b,4,5,7,10,10a,10b,11,12,12a-tetradecahydrocyclopenta[5,6]naphtho[1,2-f]indazol-1-yl furan-2-carboxylate], the IC50 came to 6.4 nM.
For `COCc1cc(-n2ncc3c2C=C2CC[C@@H]4[C@H]([C@@H](O)C[C@@]5(C)[C@H]4CC[C@]5(OC(=O)c4ccco4)C(=O)SCF)[C@@]2(C)C3)ccc1F` [Example 74, (1R,3aS,3bS,10aR,10bS,11S,12aS)-7-[4-Fluoro-3-(methoxymethyl)phenyl]-1-{[(fluoromethyl)thio]carbonyl}-11-hydroxy-10a,12a-dimethyl-1,2,3,3a,3b,4,5,7,10,10a,10b,11,12,12a-tetradecahydrocyclopenta[5,6]naphtho[1,2-f]indazol-1-yl furan-2-carboxylate], the IC50 is 22 nM.
In the case of `C[C@]12Cc3cnn(-c4ccc(F)c(CF)c4)c3C=C1CC[C@@H]1[C@@H]2[C@@H](O)C[C@@]2(C)[C@H]1CC[C@]2(OC(=O)c1ccco1)C(=O)SCC#N` [Example 75, (1R,3aS,3bS,10aR,10bS,11S,12aS)-1-{[(Cyanomethyl)thio]carbonyl}-7-[4-fluoro-3-(fluoromethyl)phenyl]-11-hydroxy-10a,12a-dimethyl-1,2,3,3a,3 b,4,5,7,10,10a,10b,11,12,12a-tetradecahydrocyclopenta[5,6]naphtho[1,2-f]indazol-1-yl furan-2-carboxylate], the IC50 worked out at 7.2 nM.
Regarding `C[C@]12Cc3cnn(-c4ccc(F)c(CF)c4)c3C=C1CC[C@@H]1[C@@H]2[C@@H](O)C[C@@]2(C)[C@H]1CC[C@]2(OC(=O)c1ccco1)C(=O)SCF` [Example 76, (1R,3aS,3bS,10aR,10bS,11S,12aS)-7-[4-Fluoro-3-(fluoromethyl)phenyl]-1-{[(fluoromethyl)thio]carbonyl}-11-hydroxy-10a,12a-dimethyl-1,2,3,3a,3b,4,5,7,10,10a,10b,11,12,12a-tetradecahydrocyclopenta[5,6]naphtho[1,2]-indazol-1-yl furan-2-carboxylate], the IC50 turned out to be 35 nM.
For the compound `C=CCOCc1cc(-n2ncc3c2C=C2CC[C@@H]4[C@H]([C@@H](O)C[C@@]5(C)[C@H]4CC[C@]5(OC(=O)c4ccco4)C(=O)SCC#N)[C@@]2(C)C3)ccc1F` [Example 77, (1R,3aS,3bS,10aR,10bS,11S,12aS)-1-{[(Cyanomethyl)thio]carbonyl}-7-{4-fluoro-3-[(prop-2-en-1-yloxy)methyl]phenyl}-11-hydroxy-10a,12a-dimethyl-1,2,3,3a,3b, 4,5,7,10,10a,10b,11,12,12a-tetradecahydrocyclopenta[5,6]naphtho[1,2-f]indazol-1-yl furan-2-carboxylate], the IC50 came to 22 nM.
For `C=CCOCc1cc(-n2ncc3c2C=C2CC[C@@H]4[C@H]([C@@H](O)C[C@@]5(C)[C@H]4CC[C@]5(OC(=O)c4ccco4)C(=O)NC)[C@@]2(C)C3)ccc1F` [Example 78, (1R,3aS,3bS,10aR,10bS,11S,12aS)-7-{4-Fluoro-3-[(prop-2-en-1-yloxy)methyl]phenyl}-11-hydroxy-10a,12a-dimethyl-1-(methylcarbamoyl)-1,2,3,3a,3b,4,5,7,10,10a,10b,11,12,12a-tetradecahydrocyclopenta[5,6]naphtho[1,2-f]indazol-1-yl furan-2-carboxylate] the value was 12 nM; for `C[C@]12Cc3cnn(-c4ccc(F)c(CO)c4)c3C=C1CC[C@@H]1[C@@H]2[C@@H](O)C[C@@]2(C)[C@H]1CC[C@]2(OC(=O)c1ccco1)C(=O)OCC#N` [Example 79, Cyanomethyl(1R,3aS,3bS,10aR,10bS,11S,12aS)-7-[4-fluoro-3-(hydroxymethyl)phenyl]-1-[(furan-2-ylcarbonyl)oxy]-11-hydroxy-10a,12a-dimethyl-1,2,3,3a,3b,4,5,7,10,10a,10b,11,12,12a-tetradecahydrocyclopenta[5,6]naphtho[1,2-f]indazole-1-carboxylate], 4.2 nM.
For the compound `C[C@]12Cc3cnn(-c4ccc(F)c(CO)c4)c3C=C1CC[C@@H]1[C@@H]2[C@@H](O)C[C@@]2(C)[C@H]1CC[C@]2(OC(=O)c1ccco1)C(=O)SCC#N` [Example 80, (1R,3aS,3bS,10aR,10bS,11S,12aS)-1-{[(Cyanomethyl)thio]carbonyl}-7-[4-fluoro-3-(hydroxymethyl)phenyl]-11-hydroxy-10a,12a-dimethyl-1,2,3,3a,3b,4,5,7,10,10a,10b,11,12,12a-tetradecahydrocyclopenta[5,6]naphtho[1,2]-indazol-1-yl furan-2-carboxylate], the IC50 was 4.2 nM.
The figure for `C[C@]12Cc3cnn(-c4ccc(F)c(CO)c4)c3C=C1CC[C@@H]1[C@@H]2[C@@H](O)C[C@@]2(C)[C@H]1CC[C@]2(OC(=O)c1ccco1)C(=O)SCF` [Example 81, (1R,3aS,3bS,10aR,10bS,11S,12aS)-7-[4-Fluoro-3-(hydroxymethyl)phenyl]-1-{[(fluoromethyl)thio]carbonyl}-11-hydroxy-10a,12a-dimethyl-1,2,3,3a,3b,4,5,7,10,10a,10b,11,12,12a-tetradecahydrocyclopenta[5,6]naphtho[1,2-f]indazol-1-yl furan-2-carboxylate] is 4.5 nM; for `CSCSC(=O)[C@@]1(OC(=O)c2ccco2)CC[C@H]2[C@@H]3CCC4=Cc5c(cnn5-c5ccc(F)cc5)C[C@]4(C)[C@H]3[C@@H](O)C[C@@]21C` [Example 82, (1R,3aS,3bS,10aR,10bS,11S,12aS)-7-(4-Fluorophenyl)-11-hydroxy-10a,12a-dimethyl-1-({[(methylsulfanyl)methyl]sulfanyl}carbonyl)-1,2,3,3a,3b,4,5,7,10,10a,10b,11,12,12a-tetradecahydrocyclopenta[5,6]naphtho[1,2-f]indazol-1-yl furan-2-carboxylate] it is 8.5 nM.
As to `C[C@]12Cc3cnn(-c4ccc(F)cc4)c3C=C1CC[C@@H]1[C@@H]2[C@@H](O)C[C@@]2(C)[C@H]1CC[C@]2(OC(=O)c1ccco1)C(=O)SCSC#N` [Example 83, (1R,3aS,3bS,10aR,10bS,11S,12aS)-7-(4-Fluorophenyl)-11-hydroxy-10a,12a-dimethyl-1-{[(thiocyanatomethyl)sulfanyl]carbonyl}-1,2,3,3a,3b,4,5,7,10,10a,10b,11,12,12a-tetradecahydrocyclopenta[5,6]naphtho[1,2-f]indazol-1-yl furan-2-carboxylate], the IC50 turned out to be 18 nM.
On to `C[C@]12Cc3cnn(-c4ccc(F)cc4)c3C=C1CC[C@@H]1[C@@H]2[C@@H](O)C[C@@]2(C)[C@H]1CC[C@]2(OC(=O)c1ccco1)C(=O)SCC(O)CO` (stereo partly drawn) [Example 84, (1R,3aS,3bS,10aR,10bS,11S,12aS)-1-{[(2,3-Dihydroxypropyl)sulfanyl]carbonyl}-7-(4-fluorophenyl)-11-hydroxy-10a,12a-dimethyl-1,2,3,3a,3b,4,5,7,10,10a,10b,11,12,12a-tetradecahydrocyclopenta[5,6]naphtho[1,2-f]indazol-1-yl furan-2-carboxylate], for which the IC50 turned out to be 5 nM.
For `COCCCSC(=O)[C@@]1(OC(=O)c2ccco2)CC[C@H]2[C@@H]3CCC4=Cc5c(cnn5-c5ccc(F)cc5)C[C@]4(C)[C@H]3[C@@H](O)C[C@@]21C` [Example 85, (1R,3aS,3bS,10aR,10bS,11S,12aS)-7-(4-Fluorophenyl)-11-hydroxy-{[(3-methoxypropyl)sulfanyl]carbonyl}-10a,12a-dimethyl-1,2,3,3a,3b,4,5,7,10,10a,10b,11,12,12a-tetradecahydrocyclopenta[5,6]naphtho[1,2-f]indazol-1-yl furan-2-carboxylate], the IC50 was 6.3 nM.
